According to paper PMC10486429, “Investigations Using Albumin Binders to Modify the Tissue Distribution Profile of Radiopharmaceuticals Exemplified with Folate Radioconjugates” (Cancers, 2023):

Experiments:
[1] = n-octanol/PBS distribution coefficient (shake-flask) of 177Lu-RedFols; assay type: physicochemical; conditions: n-octanol/PBS pH 7.4
Experimental: The radiolytic stability of ^177Lu-RedFols (50 MBq/nmol) in PBS pH 7.4 was investigated at an activity concentration of 100 MBq in 500 µL over 24 h at room temperature. The n-octanol/PBS distribution coefficients (logD values) of the folate radioconjugates (50 MBq/nmol) were determined using the same shake-flask method as used for the ^177Lu-DOTA-ALBs, including statistical analysis (Supplementary Material, Section S4). […]
S4. n-Octanol/PBS Distribution Coefficient of 177Lu-DOTA-ALBs
Purpose: The n-octanol/PBS distribution coefficients (logD values) were determined for all 177Lu-DOTA-ALBs in order to assess their hydrophilic/hydrophobic properties.
Methods: The n-octanol/PBS distribution coefficients (logD values) of the 177Lu-DOTA-ALBs were determined as previously described. […] 4 . […]
The vials were vortexed vigorously for 1 min followed by centrifugation for 6 min at 560 rcf for phase separation. An aliquot was taken from each phase and measured in a γ-counter (Perkin Elmer, Wallac Wizard 1480, Waltham, MA, USA). The distribution coeffi-cients were calculated as the logarithm of the ratio of counts per minute (cpm) measured in the n-octanol phase relative to the cpm measured in the PBS phase. The results were listed as the average ± standard deviation (SD) of the data obtained from 2–3 independent experiments, each performed with five replicates. […]

[2] = system: KB tumor-bearing athymic nude mice; experiment: Biodistribution of 177Lu-RedFols in KB tumor-bearing mice; assay type: in vivo, mouse
Experimental: Athymic nude mice (Crl:CD1-Foxn^nu) were kept on a folate-deficient rodent diet (ssniff Spezialdiäten GmbH, Soest, Germany) for at least one week prior to inoculation with the tumor cells. Biodistribution studies were performed approx. two weeks after subcutaneous inoculation with KB tumor cells (5 × 10^6 in 100 μL PBS) (Supplementary Materials Section S12). […] Data were presented as the average ± SD of n = 3−4 mice.
Purpose: Biodistribution studies were performed in KB tumor-bearing athymic nude mice (Crl:CD1-Foxnnu) in order to investigate the tissue distribution profiles of the novel radioconjugates. The aim was to compare the impact of the two different albumin binders (4-(p-iodophenyl)butanoate unit vs. 5-(p-iodophenyl)pentanoate unit), and that of the in-corporation of an AMBA linker adjacent to the albumin binder on the distribution profile of the resulting folate radioconjugates.
Methods: The methods are described in the main article. The mice were sacrificed at […]

CN1c2c(nc(N)[nH]c2=O)NC[C@H]1CNc1ccc(C(=O)N[C@@H](CCC(=O)N[C@@H](CCCCNC(=O)CN2CCN(CC(=O)O)CCN(CC(=O)O)CCN(CC(=O)O)CC2)C(=O)N[C@@H](CCCCNC(=O)c2ccc(CNC(=O)CCCCc3ccc(I)cc3)cc2)C(=O)O)C(=O)O)cc1 [[^177Lu]Lu-6R-RedFol-25, metal not drawn]
logD Values [1]: −3.0 ± 0.1 | Blood, accumulated activity ([2]; 1 h p.i.): 13 ± 3 % IA/g | Bone, accumulated activity ([2]; 1 h p.i.): 1.5 ± 0.3 % IA/g | Intestines, accumulated activity ([2]; 1 h p.i.): 1.7 ± 0.3 % IA/g | KB tumor, accumulated activity ([2]; 1 h p.i.): 15 ± 1 % IA/g | Kidneys, accumulated activity ([2]; 1 h p.i.): 22 ± 3 % IA/g | Liver, accumulated activity ([2]; 1 h p.i.): 2.3 ± 0.6 % IA/g | Lung, accumulated activity ([2]; 1 h p.i.): 5.8 ± 1.7 % IA/g | Muscle, accumulated activity ([2]; 1 h p.i.): 1.4 ± 0.1 % IA/g | Salivary glands, accumulated activity ([2]; 1 h p.i.): 4.7 ± 3.3 % IA/g | Spleen, accumulated activity ([2]; 1 h p.i.): 1.7 ± 0.3 % IA/g | Stomach, accumulated activity ([2]; 1 h p.i.): 1.7 ± 0.2 % IA/g | Tumor-to-blood ratio ([2]; 1 h p.i.): 1.2 ± 0.4 | Tumor-to-kidney ratio ([2]; 1 h p.i.): 0.67 ± 0.07 | Tumor-to-liver ratio ([2]; 1 h p.i.): 6.8 ± 2.4 | Blood, accumulated activity ([2]; 4 h p.i.): 6.1 ± 0.5 % IA/g | Bone, accumulated activity ([2]; 4 h p.i.): 1.1 ± 0.1 % IA/g | Intestines, accumulated activity ([2]; 4 h p.i.): 0.78 ± 0.15 % IA/g | KB tumor, accumulated activity ([2]; 4 h p.i.): 30 ± 3 % IA/g | Kidneys, accumulated activity ([2]; 4 h p.i.): 39 ± 2 % IA/g | Liver, accumulated activity ([2]; 4 h p.i.): 2.1 ± 0.2 % IA/g | Lung, accumulated activity ([2]; 4 h p.i.): 3.4 ± 0.1 % IA/g | Muscle, accumulated activity ([2]; 4 h p.i.): 1.3 ± 0.2 % IA/g | Salivary glands, accumulated activity ([2]; 4 h p.i.): 4.8 ± 3.2 % IA/g | Spleen, accumulated activity ([2]; 4 h p.i.): 1.2 ± 0.1 % IA/g | Stomach, accumulated activity ([2]; 4 h p.i.): 1.1 ± 0.1 % IA/g | Tumor-to-blood ratio ([2]; 4 h p.i.): 4.9 ± 0.2 | Tumor-to-kidney ratio ([2]; 4 h p.i.): 0.78 ± 0.11 | Tumor-to-liver ratio ([2]; 4 h p.i.): 14 ± 1 | Blood, accumulated activity ([2]; 24 h p.i.): 0.16 ± 0.08 % IA/g | Bone, accumulated activity ([2]; 24 h p.i.): 0.50 ± 0.12 % IA/g | Intestines, accumulated activity ([2]; 24 h p.i.): 0.26 ± 0.06 % IA/g | KB tumor, accumulated activity ([2]; 24 h p.i.): 34 ± 5 % IA/g | Kidneys, accumulated activity ([2]; 24 h p.i.): 48 ± 4 % IA/g | Liver, accumulated activity ([2]; 24 h p.i.): 1.5 ± 0.2 % IA/g | Lung, accumulated activity ([2]; 24 h p.i.): 0.78 ± 0.23 % IA/g | Muscle, accumulated activity ([2]; 24 h p.i.): 1.1 ± 0.6 % IA/g | Salivary glands, accumulated activity ([2]; 24 h p.i.): 3.1 ± 2.0 % IA/g | Spleen, accumulated activity ([2]; 24 h p.i.): 0.60 ± 0.04 % IA/g | Stomach, accumulated activity ([2]; 24 h p.i.): 0.44 ± 0.06 % IA/g | Tumor-to-blood ratio ([2]; 24 h p.i.): 247 ± 101 | Tumor-to-kidney ratio ([2]; 24 h p.i.): 0.72 ± 0.15 | Tumor-to-liver ratio ([2]; 24 h p.i.): 23 ± 7
